Measured values taken from patent publication US20220324835A1 (Nurix Therapeutics, Inc., priority 2018, published 2022).
Like-named read-outs stand apart in the source and are kept apart here.

What was measured:
T-cell [1] = test: CD25 cell surface staining on T-cells co-stimulated with anti-CD3 and anti-CD28 antibody (Biological Example 2); type: cell-based, human; details: Homo sapiens, T-cell, fold change over baseline, primary human total T-cells, read-out: CD25 staining Anti-CD3/Anti-CD28 stimulation; for fold induction at 0.3 µM: 0.3 μM Cbl-b inhibitor; for fold induction at 1 µM: 1 μM Cbl-b inhibitor; for fold induction at 4 µM: 4 μM Cbl-b inhibitor
Summary of the method: (§1)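 T-cells were stimulated with anti-CD3 antibody alone or with anti-CD28 antibody, in the presence or absence of Cbl-b inhibitor. IL-2 secretion or CD25 surface staining was measured, and values expressed as fold over the uninhibited baseline […].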

T-cell [2] = test: CD25 cell surface staining on T-cells stimulated with anti-CD3 antibody alone (Biological Example 2); type: cell-based, human; details: T-cell, fold change over baseline, primary human total T-cells, read-out: CD25 staining Anti-CD3 stimulation; for fold induction at 1 µM: 1 μM Cbl-b inhibitor; for fold induction at 8 µM: 8 μM Cbl-b inhibitor
T-cell [3] = test: IL-2 secretion from T-cells co-stimulated with anti-CD3 and anti-CD28 antibody (Biological Example 2); type: cell-based, human; details: Homo sapiens, T-cell, fold change over baseline, primary human total T-cells, read-out: IL-2 secretion Anti-CD3/Anti-CD28 stimulation; for fold induction at 0.3 µM: 0.3 μM Cbl-b inhibitor; for fold induction at 1 µM: 1 μM Cbl-b inhibitor; for fold induction at 4 µM: 4 μM Cbl-b inhibitor
Summary of the method: as §1

Cbl-b = Cbl-b (Homo sapiens, UniProt Q13191); test: Cbl-b activity assay (Cbl-b inhibition assay), TR-FRET of Cbl-b interaction with UbcH5B-Ub; type: biochemical
Summary of the method: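 UbcH5B (C85K) conjugated to N-terminally Bodipy-Fluorescein-labeled ubiquitin served as the fluorescent partner. After compound preincubation, Src kinase (60 nM) with 1 mM ATP and 5 mM MgCl2 (final) was added for 1.5 h, followed by a further 1 h incubation. Some values were obtained with 50 mM NaCl and 30 nM Src.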

[4] = assay buffer with 100 mM NaCl, 60 nM Src kinase, read-out: Cbl-b activity IC50

Cbl-b, sequence (Q13191 36-427): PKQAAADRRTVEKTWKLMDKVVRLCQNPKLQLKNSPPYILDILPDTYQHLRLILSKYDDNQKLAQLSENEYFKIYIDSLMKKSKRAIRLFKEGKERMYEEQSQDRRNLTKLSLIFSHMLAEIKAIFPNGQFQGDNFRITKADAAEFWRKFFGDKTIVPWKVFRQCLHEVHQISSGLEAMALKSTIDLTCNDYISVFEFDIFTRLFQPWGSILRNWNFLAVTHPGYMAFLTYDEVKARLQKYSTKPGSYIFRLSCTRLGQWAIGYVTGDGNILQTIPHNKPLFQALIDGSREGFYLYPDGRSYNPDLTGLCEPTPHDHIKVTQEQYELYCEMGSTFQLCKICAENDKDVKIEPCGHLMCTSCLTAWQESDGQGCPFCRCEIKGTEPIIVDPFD

Row | SMILES | fold induction at 0.3 µM (T-cell [1]) | fold induction at 1 µM (T-cell [1]) | fold induction at 4 µM (T-cell [1]) | fold induction at 1 µM (T-cell [2]) | fold induction at 8 µM (T-cell [2]) | fold induction at 0.3 µM (T-cell [3]) | fold induction at 1 µM (T-cell [3]) | fold induction at 4 µM (T-cell [3]) | IC50 (Cbl-b; [4]) | IC50 (Cbl-b; * assay buffer containing 50 mM NaCl instead of 100 mM NaCl and 30 nM Src kinase instead of 60 nM, read-out: Cbl-b activity IC50 (μM)*)
1 | C[C@H](Cc1nncn1C)c1cc(F)cc(N2Cc3c(cccc3C(F)(F)F)C2=O)c1 [Compound 281a, 2-[3-Fluoro-5-[(1R)-1-methyl-2-(4-methyl-1,2,4-triazol-3-yl)ethyl]phenyl]-4-(trifluoromethyl)isoindolin-1-one] | 1.01 to 1.3 | 1.01 to 1.3 | 1.31 to 1.5 | 0.801 to 1 | > 1 | 1.01 to 2.5 | 1.01 to 2.5 | 2.51 to 5 | 0.1 to 0.3 µM | 
2 | C[C@H](Sc1nncn1C)c1ccc(F)c(NC(=O)c2cccc(C(F)(F)F)n2)c1 [Compound 95a, (S)-N-(2-fluoro-5-(1-((4-methyl-4H-1,2,4-triazol-3-yl)thio)ethyl)phenyl)-6-(trifluoromethyl)picolinamide] | < 1 | 1.01 to 1.3 | 1.01 to 1.3 | < 0.6 | < 0.6 | 1.01 to 2.5 | 1.01 to 2.5 | 2.51 to 5 | 0.301 to 1 µM | 
3 | C[C@H](Sc1nnc[nH]1)c1cccc(NC(=O)c2cc3ccccc3cn2)c1 [Compound 98, (S)-N-(3-(1-((4H-1,2,4-triazol-3-yl)thio)ethyl)phenyl)isoquinoline-3-carboxamide] | < 1 | < 1 | < 1 | < 0.6 | < 0.6 | 1.01 to 2.5 | 1.01 to 2.5 | 1.01 to 2.5 | 0.301 to 1 µM | 1 to 3 µM
4 | C[C@H](Cc1nncn1C)c1cc(NCCO)nc(N2Cc3c(cccc3C(F)(F)F)C2=O)c1 [Compound 357, (R)-2-(6-(2-hydroxyethylamino)-4-(1-(4-methyl-4H-1,2,4-triazol-3-yl)propan-2-yl)pyridin-2-yl)-4-(trifluoromethyl)isoindolin-1-one] | 1.01 to 1.3 | 1.01 to 1.3 | 1.01 to 1.3 | 0.601 to 0.8 | > 1 | 1.01 to 2.5 | 1.01 to 2.5 | 2.51 to 5 | 0.1 to 0.3 µM | 
5 | C[C@H](Cc1nncn1C)c1cccc(NC(=O)c2ccnc(C(F)(F)F)n2)c1 [Compound 187, (R)-N-(3-(1-(4-methyl-4H-1,2,4-triazol-3-yl)propan-2-yl)phenyl)-2-(trifluoromethyl)pyrimidine-4-carboxamide] | 1.51 to 1.75 | > 1.76 | > 1.76 | 0.801 to 1 | > 1 | 1.01 to 2.5 | 2.51 to 5 | > 7.5 | 0.1 to 0.3 µM | 
6 | C[C@H](Cc1nncn1C)c1cccc(N2Cc3c(ccnc3C3CCC3)C2=O)c1 [Compound 258, (R)-4-cyclobutyl-2-(3-(1-(4-methyl-4H-1,2,4-triazol-3-yl)propan-2-yl)phenyl)-2,3-dihydropyrrolo[3,4-c]pyridin-1-one] | < 1 | 1.01 to 1.3 | 1.01 to 1.3 | > 1 | > 1 | 1.01 to 2.5 | 2.51 to 5 | 5 to 7.5 | 0.1 to 0.3 µM | 
7 | COc1cc(C(=O)Nc2cccc([C@H](C)Sc3nncn3C)c2)nc(C(F)(F)F)c1 [Compound 71, (S)-4-methoxy-N-(3-(1-((4-methyl-4H-1,2,4-triazol-3-yl)thio)ethyl)phenyl)-6-(trifluoromethyl)picolinamide] | 1.01 to 1.3 | 1.51 to 1.75 | > 1.76 | 0.801 to 1 | 0.801 to 1 | 2.51 to 5 | 2.51 to 5 | 5 to 7.5 | 0.1 to 0.3 µM | 
8 | C[C@H](Sc1nncn1C)c1cccc(NC(=O)c2cc(C(F)(F)F)cc(C(F)(F)F)n2)c1 [Compound 64, (S)-N-(3-(1-((4-methyl-4H-1,2,4-triazol-3-yl)thio)ethyl)phenyl)-4,6-bis(trifluoromethyl)picolinamide] | < 1 | < 1 | 1.01 to 1.3 | < 0.6 | 0.601 to 0.8 | < 1 | < 1 | 1.01 to 2.5 | 0.301 to 1 µM | 
9 | C[C@H](Cc1nncn1C)c1cccc(NC(=O)c2cc(C(=O)N3C[C@@H](O)[C@H](F)C3)ccn2)c1 [Compound 240, 4-((3R,4R)-3-fluoro-4-hydroxypyrrolidine-1-carbonyl)-N-(3-((K)-1-(4-methyl-4H-1,2,4-triazol-3-yl)propan-2-yl)phenyl)picolinamide] | < 1 | 1.01 to 1.3 | 1.31 to 1.5 | 0.601 to 0.8 | 0.801 to 1 | < 1 | 1.01 to 2.5 | 2.51 to 5 | 0.1 to 0.3 µM | 
10 | C[C@H](Cc1nncn1C)c1ccnc(N2Cc3c(cccc3C(F)(F)F)C2=O)c1 [Compound 304b, (R)-2-(4-(1-(4-methyl-4H-1,2,4-triazol-3-yl)propan-2-yl)pyridin-2-yl)-4-(trifluoromethyl)isoindolin-1-one] | 1.01 to 1.3 | 1.01 to 1.3 | 1.31 to 1.5 | < 0.6 | < 0.6 | < 1 | < 1 | 1.01 to 2.5 | 0.301 to 1 µM | 
11 | Cc1nc2cc([C@H](C)Sc3nncn3C)cc(NC(=O)c3cccc(C(F)(F)F)n3)c2o1 [Compound 130a, (S)-N-(2-methyl-5-(1-((4-methyl-4H-1,2,4-triazol-3-yl)thio)ethyl)benzo[d]oxazol-7-yl)-6-(trifluoromethyl)picolinamide] | 1.31 to 1.5 | 1.51 to 1.75 | > 1.76 | 0.601 to 0.8 | > 1 | 2.51 to 5 | 5 to 7.5 | > 7.5 | 0.301 to 1 µM | 
12 | Cc1cc(C(=O)Nc2cccc([C@@](C)(F)C(F)(F)c3nncn3C)c2)nc(C2CC2)n1 [Compound 344, (R)-2-Cyclopropyl-6-methyl-N-(3-(1,1,2-trifluoro-1-(4-methyl-4H-1,2,4-triazol-3-yl)propan-2-yl)phenyl)pyrimidine-4-carboxamide] | 1.01 to 1.3 | 1.31 to 1.5 | 1.31 to 1.5 | 0.801 to 1 | > 1 | 1.01 to 2.5 | 2.51 to 5 | > 7.5 | 0.1 to 0.3 µM | 
13 | CCn1cnnc1C[C@@H](C)c1cccc(NC(=O)c2cc(C(=O)N3C[C@@H](O)C[C@H]3C)ccn2)c1 [Compound 251, N-(3-((R)-1-(4-ethyl-4H-1,2,4-triazol-3-yl)propan-2-yl)phenyl)-4-((2R,4S)-4-hydroxy-2-methylpyrrolidine-1-carbonyl)picolinamide] | 1.01 to 1.3 | 1.01 to 1.3 | 1.01 to 1.3 | 0.601 to 0.8 | 0.601 to 0.8 | < 1 | < 1 | 1.01 to 2.5 | 0.301 to 1 µM | 
14 | Cc1cc(C(=O)Nc2cc([C@H](C)Sc3nncn3C)ccn2)nc(C(F)(F)F)c1 [Compound 103, (S)-4-methyl-N-(4-(1-((4-methyl-4H-1,2,4-triazol-3-yl)thio)ethyl)pyridin-2-yl)-6-(trifluoromethyl)picolinamide] | < 1 | < 1 | 1.01 to 1.3 | < 0.6 | 0.801 to 1 | 1.01 to 2.5 | 1.01 to 2.5 | 1.01 to 2.5 | 0.301 to 1 µM | 
15 | CNS(=O)(=O)c1cc(C(=O)Nc2cccc([C@H](C)Cc3nncn3C)c2)nc(C(F)(F)F)c1 [Compound 201, (R)-N-(3-(1-(4-methyl-4H-1,2,4-triazol-3-yl)propan-2-yl)phenyl)-4-(N-methylsulfamoyl)-6-(trifluoromethyl)picolinamide] | 1.01 to 1.3 | 1.01 to 1.3 | 1.01 to 1.3 | 0.801 to 1 | > 1 | 1.01 to 2.5 | 1.01 to 2.5 | < 1 | 0.1 to 0.3 µM | 
